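GI50 = concentration required for 50% inhibition of growth. TGI is the concentration that stops growth completely.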
Key:
Assay in all cases: inhibition of tumour cell growth, NCI panel, 384-well format
NCI-H522 lung = system: NCI-H522 lung
BT-549 breast = system: BT-549 breast
DU-145 prostate = system: DU-145 prostate
HCC-2998 colon = system: HCC-2998 colon
HS 578T breast = system: HS 578T breast
M14 melanoma = system: M14 melanoma
EKVX NSCLC = system: EKVX NSCLC
SF-539 CNS = system: SF-539 CNS
HOP-92 NSCLC = system: HOP-92 NSCLC
HCT-15 colon = system: HCT-15 colon
UACC-257 melanoma = system: UACC-257 melanoma
LOX IMVI melanoma = system: LOX IMVI melanoma
KM12 colon = system: KM12 colon

## C=CCN(/C=C1\C(=O)O[C@H](COC)[C@@]2(C)C1=C(O)C(=O)C1=C2[C@H](OC(C)=O)C[C@]2(C)C(=O)CC[C@@H]12)CC=C
NCI-H522 lung
  GI50: 2080 nM
  TGI: 14.4 µM
BT-549 breast
  GI50: 553 nM
  TGI: 9.02 µM
DU-145 prostate
  GI50: 4.41 µM
  TGI: 59.7 µM
HCC-2998 colon
  GI50: 671 nM
  TGI: 6.09 µM
HS 578T breast
  GI50: 1150 nM
  TGI: 6.93 µM
M14 melanoma
  GI50: 2820 nM
  TGI: 30.5 µM
EKVX NSCLC
  GI50: 504 nM
  TGI: 13.6 µM
SF-539 CNS
  GI50: 7.45 µM
  TGI: > 100 µM
HOP-92 NSCLC
  GI50: 2470 nM
  TGI: 37.6 µM
HCT-15 colon
  GI50: 2980 nM
  TGI: 97.2 µM
UACC-257 melanoma
  GI50: 4.01 µM
  TGI: 43.9 µM
LOX IMVI melanoma
  GI50: 5.49 µM
  TGI: 39.1 µM
KM12 colon
  GI50: 2660 nM
  TGI: 96.3 µM

Reference: PubChem BioAssay (NCI)
